The text below walks through data of patent publication US20250282799A1, “SUBSTITUTED PYRIDO[4,3-d]PYRIMIDINES AS KRAS MODULATORS” (Alterome Therapeutics, Inc., priority 2023, published 2025).

The assay concerns KRAS G12V dependent lung adenocarcinoma cell line, NCI-H441. In words: Cellular pERK (Thr202/Tyr204) FRET/HTRF assay. It counts as cell-based. To be noted: Homo sapiens, NCI-H441, cellular pERK (Thr202/Tyr204) HTRF, NCI-H441 cells. In short, it runs like this: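 NCI-H441 cells (KRAS G12V) plated overnight at 37 °C, then exposed to compounds for 1 hr at 37 °C, 5% CO2; DMSO as negative control. Lysates read by Eu-cryptate/d2 sandwich FRET (665 nm) for ERK1/2 phosphorylated at Thr202/Tyr204; IC50 from curve fit.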
In general terms: TR-FRET usually uses a lanthanide donor and a delayed reading to cut background.
As a reminder, the IC50 is the concentration needed to halve the response being measured. A lower IC50 goes with inhibition by little substance. In turn, `[2H]C([2H])(F)Oc1c(F)ccc2cccc(-c3ncc4c(N5CCOC[C@H]6[C@H](F)[C@H]65)nc(OC[C@@]56CCCN5CC(=C)C6)nc4c3F)c12` [Example 145, (1S,7S,8S)-8-fluoro-2-(8-fluoro-7-(7-fluoro-8-(fluoromethoxy-d2)naphthalen-1-yl)-2-(((S)-2-methylenetetrahydro-1H-pyrrolizin-7a(5H)-yl)methoxy)pyrido[4,3-d]pyrimidin-4-yl)-5-oxa-2-azabicyclo[5.1.0]octane] displayed an IC50 of less than 50 nM.
For the molecule `[2H]C([2H])(F)Oc1c(F)ccc2cccc(-c3ncc4c(N5CCOC[C@H]6[C@H](F)[C@H]65)nc(OC[C@@]56CCCN5CC(=C(F)F)C6)nc4c3F)c12` [Example 146, (1S,7S,8S)-2-(2-(((S)-2-(difluoromethylene)tetrahydro-1H-pyrrolizin-7a(5H)-yl)methoxy)-8-fluoro-7-(7-fluoro-8-(fluoromethoxy-d2)naphthalen-1-yl)pyrido[4,3-d]pyrimidin-4-yl)-8-fluoro-5-oxa-2-azabicyclo[5.1.0]octane], the IC50 is less than 50 nM.
Under `[2H]C([2H])(Oc1nc(N2CCC=C[C@H]3[C@H](F)[C@H]32)c2cnc(-c3cccc4ccc(F)c(C#C)c34)c(F)c2n1)[C@@]12CCCN1C[C@H](F)C2` [Example 147, 7-(8-Ethynyl-7-fluoronaphthalen-1-yl)-8-fluoro-4-((1S,7R,8S)-8-fluoro-2-azabicyclo[5.1.0]oct-5-en-2-yl)-2-(((2R,7aS)-2-fluorotetrahydro-1H-pyrrolizin-7a(5H)-yl)methoxy-d2)pyrido[4,3-d]pyrimidine] stands less than 50 nM; under `[2H]C([2H])([2H])Oc1c(F)c(F)c(F)c2cc(N)cc(-c3ncc4c(N5CCC=C[C@H]6[C@H](F)[C@H]65)nc(OC([2H])([2H])[C@@]56CCCN5C[C@H](F)C6)nc4c3F)c12` [Example 148, 6,7,8-Trifluoro-4-(8-fluoro-4-((1S,7R,8S)-8-fluoro-2-azabicyclo[5.1.0]oct-5-en-2-yl)-2-(((2R,7aS)-2-fluorotetrahydro-1H-pyrrolizin-7a(5H)-yl)methoxy-d2)pyrido[4,3-d]pyrimidin-7-yl)-5-(methoxy-d3)naphthalen-2-amine], 50 to 500 nM.
Under `[2H]C([2H])([2H])Oc1c(F)cc(F)c2cc(N)cc(-c3ncc4c(N5CCC=C[C@H]6[C@H](F)[C@H]65)nc(OC([2H])([2H])[C@@]56CCCN5C[C@H](F)C6)nc4c3F)c12` [Example 149, 6,8-difluoro-4-(8-fluoro-4-((1S,7R,8S)-8-fluoro-2-azabicyclo[5.1.0]oct-5-en-2-yl)-2-(((2R,7aS)-2-fluorotetrahydro-1H-pyrrolizin-7a(5H)-yl)methoxy-d2)pyrido[4,3-d]pyrimidin-7-yl)-5-(methoxy-d3)naphthalen-2-amine] stands less than 50 nM; under `[2H]C([2H])(Oc1nc(N2CCC=C[C@H]3[C@H](F)[C@H]32)c2cnc(-c3cc(N)cc4ccc(F)c(C#C)c34)c(F)c2n1)[C@@]12CCCN1C[C@H](F)C2` [Example 150, 5-Ethynyl-6-fluoro-4-(8-fluoro-4-((1S,7R,8S)-8-fluoro-2-azabicyclo[5.1.0]oct-5-en-2-yl)-2-(((2R,7aS)-2-fluorotetrahydro-1H-pyrrolizin-7a(5H)-yl)methoxy-d2)pyrido[4,3-d]pyrimidin-7-yl)naphthalen-2-amine], less than 50 nM.
For `[2H]C([2H])(F)Oc1c(F)cc(F)c2cccc(-c3ncc4c(N5CCOC[C@H]6[C@H](F)[C@H]65)nc(OC([2H])([2H])[C@@]56CCCN5C[C@H](F)C6)nc4c3F)c12` [Example 151, (1S,7S,8S)-2-(7-(5,7-difluoro-8-(fluoromethoxy-d2)naphthalen-1-yl)-8-fluoro-2-(((2R,7aS)-2-fluorotetrahydro-1H-pyrrolizin-7a(5H)-yl)methoxy-d2)pyrido[4,3-d]pyrimidin-4-yl)-8-fluoro-5-oxa-2-azabicyclo[5.1.0]octane] the value was less than 50 nM; for `[2H]C([2H])(Oc1nc(N2CCOC[C@H]3[C@H](F)[C@H]32)c2cnc(-c3nc(N)cc4ccc(F)c(Cl)c34)c(F)c2n1)[C@@]12CCCN1C[C@H](F)C2` [Example 152, 8-chloro-7-fluoro-1-(8-fluoro-4-((1S,7S,8S)-8-fluoro-5-oxa-2-azabicyclo[5.1.0]octan-2-yl)-2-(((2R,7aS)-2-fluorotetrahydro-1H-pyrrolizin-7a(5H)-yl)methoxy-d2)pyrido[4,3-d]pyrimidin-7-yl)isoquinolin-3-amine], 50 to 500 nM; for `[2H]C([2H])(Oc1nc(N2CCCC[C@H]3[C@H](F)[C@H]32)c2cnc(-c3nc(N)cc4ccc(F)c(Cl)c34)c(F)c2n1)[C@@]12CCCN1C[C@H](F)C2` [Example 153, 8-chloro-7-fluoro-1-(8-fluoro-4-((1S,7R,8S)-8-fluoro-2-azabicyclo[5.1.0]octan-2-yl)-2-(((2R,7aS)-2-fluorotetrahydro-1H-pyrrolizin-7a(5H)-yl)methoxy-d2)pyrido[4,3-d]pyrimidin-7-yl)isoquinolin-3-amine], 50 to 500 nM.
`[2H]C([2H])(Oc1nc(N2CCOC[C@H]3[C@H](F)[C@H]32)c2cnc(-c3nc(N)cc4ccc(F)c(C#C)c34)c(F)c2n1)[C@@]12CCCN1C[C@H](F)C2` [Example 154]: the IC50 was less than 50 nM.
Under `C#Cc1c(F)ccc2cc(N)cc(-c3ncc4c(N5CCOC[C@H]6[C@H](F)[C@H]65)nc(OC[C@@]56CCCN5C/C(=C\F)C6)nc4c3F)c12` [Example 155, 5-Ethynyl-6-fluoro-4-(8-fluoro-4-((1S,7S,8S)-8-fluoro-5-oxa-2-azabicyclo[5.1.0]octan-2-yl)-2-(((S,Z)-2-(fluoromethylene)tetrahydro-1H-pyrrolizin-7a(5H)-yl)methoxy)pyrido[4,3-d]pyrimidin-7-yl)naphthalen-2-amine] stands less than 50 nM.
For `[2H]C([2H])(F)Oc1c(F)ccc2cccc(-c3ncc4c(N5CCOC[C@H]6[C@H](F)[C@H]65)nc(OC[C@@]56CCCN5C/C(=C/F)C6)nc4c3F)c12` [Example 156, (1S,7S,8S)-8-fluoro-2-(8-fluoro-7-(7-fluoro-8-(fluoromethoxy-d2)naphthalen-1-yl)-2-(((S,E)-2-(fluoromethylene)tetrahydro-1H-pyrrolizin-7a(5H)-yl)methoxy)pyrido[4,3-d]pyrimidin-4-yl)-5-oxa-2-azabicyclo[5.1.0]octane] the value was less than 50 nM.
As to `[2H]C([2H])(F)Oc1c(F)ccc2cccc(-c3ncc4c(N5CCOC[C@H]6[C@H](F)[C@H]65)nc(OC[C@@]56CCCN5C/C(=C\F)C6)nc4c3F)c12` [Example 157, (1S,7S,8S)-8-fluoro-2-(8-fluoro-7-(7-fluoro-8-(fluoromethoxy-d2)naphthalen-1-yl)-2-(((S,Z)-2-(fluoromethylene)tetrahydro-1H-pyrrolizin-7a(5H)-yl)methoxy)pyrido[4,3-d]pyrimidin-4-yl)-5-oxa-2-azabicyclo[5.1.0]octane], the IC50 is less than 50 nM.
Under `C#Cc1c(F)ccc2cc(N)cc(-c3ncc4c(N5CCOC[C@H]6[C@H](F)[C@H]65)nc(OC[C@@]56CCCN5CC(=C)C6)nc4c3F)c12` [Example 158, 5-Ethynyl-6-fluoro-4-(8-fluoro-4-((1S,7S,8S)-8-fluoro-5-oxa-2-azabicyclo[5.1.0]octan-2-yl)-2-(((S)-2-methylenetetrahydro-1H-pyrrolizin-7a(5H)-yl)methoxy)pyrido[4,3-d]pyrimidin-7-yl)naphthalen-2-amine] stands less than 50 nM; under `[2H]C([2H])(Oc1nc(N2CCOC[C@H]3[C@H](F)[C@H]32)c2cc(Cl)c(-c3nc(N)cc(C)c3C(F)(F)F)c(F)c2n1)[C@@]12CCCN1C[C@H](F)C2` [Example 159, 6-(6-Chloro-8-fluoro-4-((1S,7S,8S)-8-fluoro-5-oxa-2-azabicyclo[5.1.0]octan-2-yl)-2-(((2R,7aS)-2-fluorotetrahydro-1H-pyrrolizin-7a(5H)-yl)methoxy-d2)quinazolin-7-yl)-4-methyl-5-(trifluoromethyl)pyridin-2-amine], less than 50 nM.
Under `[2H]C([2H])(Oc1nc(N2CCOC[C@@H]3[C@@H](F)[C@@H]32)c2cc(Cl)c(-c3nc(N)cc(C)c3C(F)(F)F)c(F)c2n1)[C@@]12CCCN1C[C@H](F)C2` [Example 160, 6-(6-chloro-8-fluoro-4-((1R,7R,8R)-8-fluoro-5-oxa-2-azabicyclo[5.1.0]octan-2-yl)-2-(((2R,7aS)-2-fluorotetrahydro-1H-pyrrolizin-7a(5H)-yl)methoxy-d2)quinazolin-7-yl)-4-methyl-5-(trifluoromethyl)pyridin-2-amine] stands 50 to 500 nM; under `C#Cc1c(F)ccc2cc(N)cc(-c3ncc4c(N5CCOC[C@H]6[C@H](F)[C@H]65)nc(OC[C@@]56CCCN5C/C(=C/F)C6)nc4c3F)c12` [Example 161, 5-Ethynyl-6-fluoro-4-(8-fluoro-4-((1S,7S,8S)-8-fluoro-5-oxa-2-azabicyclo[5.1.0]octan-2-yl)-2-(((S,E)-2-(fluoromethylene)tetrahydro-1H-pyrrolizin-7a(5H)-yl)methoxy)pyrido[4,3-d]pyrimidin-7-yl)naphthalen-2-amine], less than 50 nM; under `[2H]C([2H])(F)Oc1c(F)c(F)cc2cc(N)cc(-c3ncc4c(N5CCOC[C@H]6[C@H](F)[C@H]65)nc(OC[C@@]56CCCN5C/C(=C\F)C6)nc4c3F)c12` [Example 162, 6,7-Difluoro-4-(8-fluoro-4-((1S,7S,8S)-8-fluoro-5-oxa-2-azabicyclo[5.1.0]octan-2-yl)-2-(((S,Z)-2-(fluoromethylene)tetrahydro-1H-pyrrolizin-7a(5H)-yl)methoxy)pyrido[4,3-d]pyrimidin-7-yl)-5-(fluoromethoxy-d2)naphthalen-2-amine], less than 50 nM.
